Data as given in US8952024B2, “Herbicidal pyrimidone derivatives” (E I du Pont de Nemours and Company, priority 2009, dated 2015).

Legend:
Type in all cases: in vivo
wild oat (Avena fatua) = experiment: Test B pre-/postemergence plant response
Text: (§1) Seeds of plant species selected from blackgrass (Alopecurus myosuroides), downy bromegrass (Bromus tectorum), green foxtail (Setaria viridis), Italian ryegrass (Lolium multiflorum), wheat (Triticum aestivum), wild oat (Avena fatua), deadnettle (henbit deadnettle, Lamium amplexicaule), galium (catchweed bedstraw, Galium aparine), bermudagrass (Cynodon dactylon), Surinam grass (Brachiaria decumbens), cocklebur (Xanthium strumarium), corn (Zea mays), large crabgrass (Digitaria sanguinalis), woolly cupgrass (Eriochloa villosa), giant foxtail (Setaria faberii), goosegrass (Eleusine indica), johnsongrass (Sorghum halepense), kochia (Kochia scoparia), lambsquarters (Chenopodium album), morningglory (Ipomoea coccinea), nightshade (eastern black nightshade, Solanum ptycanthum), yellow nutsedge (Cyperus esculentus), pigweed (Amaranthus retroflexus), ragweed (common ragweed, Ambrosia elatior), Russian thistle (Salsola kali), soybean (Glycine max), sunflower (common oilseed sunflower, Helianthus annuus) and velvetleaf (Abutilon theophrasti) were planted into a blend of loam soil and sand and treated preemergence with test compounds formulated in a non-phytotoxic solvent mixture which included a surfactant.
(§2) At the same time, plants selected from these crop and weed species and also winter barley (Hordeum vulgare), canarygrass (Phalaris minor), chickweed (Stellaria media) and windgrass (Apera spica-venti) were planted in pots containing Redi-Earth® planting medium (Scotts Company, 14111 Scottslawn Road, Marysville, Ohio 43041) comprising spaghnum peat moss, vermiculite, wetting agent and starter nutrients and treated with postemergence applications of some of the test chemicals formulated in the same manner. Plants ranged in height from 2 to 18 cm (1- to 4-leaf stage) for postemergence treatments.
(§3) Treated plants and controls were maintained in a greenhouse for 13 to 15 days, after which time all treated plants were visually evaluated and compared to controls. Plant response ratings, summarized in Table B, are based on a scale of 0 to 100 where 0 is no effect and 100 is complete control. A dash (-) response means no test result.

corn (Zea mays) = experiment: Test B pre-/postemergence plant response
Text: as §1, §2, §3

[1] = test system: giant foxtail (Setaria faberii); experiment: Test B pre-/postemergence plant response
Text: as §1, §2, §3

[2] = test system: bermudagrass (Cynodon dactylon); experiment: Test B pre-/postemergence plant response
Text: as §1, §2, §3

[3] = test system: ragweed (common ragweed, Ambrosia elatior); experiment: Test B pre-/postemergence plant response
Text: as §1, §2, §3

[4] = test system: pigweed (Amaranthus retroflexus); experiment: Test B pre-/postemergence plant response
Text: as §1, §2, §3

soybean (Glycine max) = experiment: Test B pre-/postemergence plant response
Text: as §1, §2, §3

[5] = test system: green foxtail (Setaria viridis); experiment: Test B pre-/postemergence plant response
Text: as §1, §2, §3

[6] = test system: lambsquarters (Chenopodium album); experiment: Test B pre-/postemergence plant response
Text: as §1, §2, §3

kochia (Kochia scoparia) = experiment: Test B pre-/postemergence plant response
Text: as §1, §2, §3

[7] = test system: cocklebur (Xanthium strumarium); experiment: Test B pre-/postemergence plant response
Text: as §1, §2, §3

[8] = test system: johnsongrass (Sorghum halepense); experiment: Test B pre-/postemergence plant response
Text: as §1, §2, §3

[9] = test system: ducksalad (Heteranthera limosa); experiment: Test B flooded paddy test; details: for Plant response rating, Ducksalad: Flood (flooded paddy test), 13 to 15 days
Outline: (§4)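 Rice, umbrella sedge, ducksalad and barnyardgrass were grown to the 2-leaf stage, flooded to 3 cm, and compound was applied directly to the paddy water, with that depth kept throughout. After 13 to 15 days in the greenhouse, plants were visually rated against controls on a 0 (no effect) to 100 (complete control) scale.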

[10] = test system: umbrella sedge (Cyperus difformis); experiment: Test B flooded paddy test; details: for Plant response rating, Sedge, Umbrella: Flood (flooded paddy test), 13 to 15 days
Outline: as §4

rice (Oryza sativa) = experiment: Test B flooded paddy test; details: for Plant response rating, Rice: Flood (flooded paddy test), 13 to 15 days
Outline: as §4

[11] = test system: barnyardgrass (Echinochloa crus-galli); experiment: Test B flooded paddy test; details: for Plant response rating, Barnyardgrass: Flood (flooded paddy test), 13 to 15 days
Outline: as §4

[12] = 31 g ai/ha, postemergence, scale 0 to 100, 0 is no effect, 100 is complete control
[13] = 62 g ai/ha, postemergence, 0 is no effect, 100 is complete control, 13 to 15 days
[14] = Postemergence, 125 g ai/ha, visual rating after 13 to 15 days, scale 0 (no effect) to 100 (complete control)
[15] = Postemergence, 250 g ai/ha, scale 0 to 100 (0 no effect, 100 complete control)
[16] = 250 g ai/ha, flooded paddy test, visual rating on 0 to 100 scale (0 no effect, 100 complete control) after 13 to 15 days
[17] = 62 g ai/ha, scale of 0 to 100 where 0 is no effect and 100 is complete control
[18] = 125 g ai/ha, scale 0 to 100, 0 is no effect, 100 is complete control
[19] = Flood, 31 g ai/ha, scale 0 to 100 (0 no effect, 100 complete control)

O=C1CCCC(O)=C1C(=O)c1cnc(-c2ccc(Br)cc2)n(-c2ccccc2)c1=O [Compound 70]
Plant response rating, Oat, Wild (wild oat (Avena fatua); [12]): 55
Oat, Wild plant response rating (0 to 100 scale) (wild oat (Avena fatua); [13]): 70
Plant response rating, Oat, Wild (wild oat (Avena fatua); [14]): 90
Plant response rating, Oat, Wild (wild oat (Avena fatua); [15]): 95
Plant response rating, Corn (corn (Zea mays); [12]): 15
Corn plant response rating (0 to 100 scale) (corn (Zea mays); [13]): 35
Plant response rating, Corn (corn (Zea mays); [14]): 60
Plant response rating, Corn (corn (Zea mays); [15]): 75
Plant response rating, Foxtail, Giant [1, 12]: 75
Foxtail, Giant plant response rating (0 to 100 scale) [1, 13]: 85
Plant response rating, Foxtail, Giant [1, 14]: 95
Plant response rating, Foxtail, Giant [1, 15]: 98
Plant response rating, Bermudagrass [2, 12]: 75
Bermudagrass plant response rating (0 to 100 scale) [2, 13]: 85
Plant response rating, Bermudagrass [2, 14]: 95
Plant response rating, Bermudagrass [2, 15]: 98
Plant response rating, Ragweed [3, 12]: 60
Ragweed plant response rating (0 to 100 scale) [3, 13]: 70
Plant response rating, Ragweed [3, 14]: 75
Plant response rating, Ragweed [3, 15]: 80
Plant response rating, Pigweed [4, 12]: 85
Pigweed plant response rating (0 to 100 scale) [4, 13]: 98
Plant response rating, Pigweed [4, 14]: 98
Plant response rating, Pigweed [4, 15]: 100
Plant response rating, Soybean (soybean (Glycine max); [12]): 75
Soybean plant response rating (0 to 100 scale) (soybean (Glycine max); [13]): 75
Plant response rating, Soybean (soybean (Glycine max); [14]): 95
Plant response rating, Soybean (soybean (Glycine max); [15]): 98
Plant response rating, Foxtail, Green [5, 12]: 80
Foxtail, Green plant response rating (0 to 100 scale) [5, 13]: 85
Plant response rating, Foxtail, Green [5, 14]: 98
Plant response rating, Foxtail, Green [5, 15]: 98
Plant response rating, Lambsquarters [6, 12]: 85
Lambsquarters plant response rating (0 to 100 scale) [6, 13]: 98
Plant response rating, Lambsquarters [6, 14]: 100
Plant response rating, Lambsquarters [6, 15]: 100
Plant response rating, Kochia (kochia (Kochia scoparia); [12]): 65
Kochia plant response rating (0 to 100 scale) (kochia (Kochia scoparia); [13]): 65
Plant response rating, Kochia (kochia (Kochia scoparia); [14]): 75
Plant response rating, Kochia (kochia (Kochia scoparia); [15]): 98
Plant response rating, Cocklebur [7, 12]: 0
Cocklebur plant response rating (0 to 100 scale) [7, 13]: 0
Plant response rating, Cocklebur [7, 14]: 40
Plant response rating, Cocklebur [7, 15]: 40
Plant response rating, Johnsongrass [8, 12]: 65
Johnsongrass plant response rating (0 to 100 scale) [8, 13]: 70
Plant response rating, Johnsongrass [8, 14]: 80
Plant response rating, Johnsongrass [8, 15]: 98
Plant response rating, Flood, Ducksalad [9, 16]: 0
Plant response rating, Ducksalad [9, 17]: 0
Plant response rating, Ducksalad [9, 18]: 0
Ducksalad plant response rating [9, 19]: 0
Plant response rating, Flood, Sedge, Umbrella [10, 16]: 20
Plant response rating, Sedge, Umbrella [10, 17]: 0
Plant response rating, Sedge, Umbrella [10, 18]: 20
Sedge, Umbrella plant response rating [10, 19]: 0
Plant response rating, Flood, Rice (rice (Oryza sativa); [16]): 20
Plant response rating, Rice (rice (Oryza sativa); [17]): 0
Plant response rating, Rice (rice (Oryza sativa); [18]): 0
Rice plant response rating (rice (Oryza sativa); [19]): 0
Plant response rating, Flood, Barnyardgrass [11, 16]: 20
Plant response rating, Barnyardgrass [11, 17]: 0
Plant response rating, Barnyardgrass [11, 18]: 0
Barnyardgrass plant response rating [11, 19]: 0
